Reference: ChEMBL document CHEMBL2150981, “Discovery and optimization of benzotriazine di-N-oxides targeting replicating and nonreplicating Mycobacterium tuberculosis” (J Med Chem, 2012)
In brackets after ≈: the same amount, converted by molar mass.

Assays:
[1] = tested on: Mycobacterium tuberculosis; assay: Antitubercular activity against Mycobacterium tuberculosis H37Rv isolate ITR after 7 days by luminescence spectrometry; format: functional; conditions: 168 h
[2] = tested on: Mycobacterium tuberculosis; assay: Antitubercular activity against Mycobacterium tuberculosis H37Rv isolate SRI after 5 days by resazurin-based microplate assay; format: functional; conditions: 120 h
[3] = tested on: Vero; assay: Cytotoxicity against african green monkey Vero cells after 72 hrs by CellTiterGlo assay; conditions: chlorocebus sabaeus, vero, 72 h
[4] = Selectivity index, ratio of CC50 for Vero cells to MIC90 for Mycobacterium tuberculosis H37Rv isolate SRI; format: functional
[5] = tested on: Mycobacterium tuberculosis; assay: Antitubercular activity against Mycobacterium tuberculosis H37Rv incubated for 10 days in anaerobic condition followed by 48 hrs incubation in aerobic condition by LORA assay; format: functional

Structure (SMILES)	MIC90 [1]	MIC90 [2]	CC50 [3]	Selectivity Index [4]	MIC90 [5]
COc1ccc2c(c1)[n+]([O-])nc(N[C@@H]1C[C@H]3CC[C@@H]1C3)[n+]2[O-]	0.97 µg/mL (≈ 3.21 µM)	0.62 µg/mL (≈ 2.05 µM)	> 50 µg/mL	>80	1.6 µg/mL (≈ 5.29 µM)
Cc1c(N2CCCC2)[n+]([O-])c2ccccc2[n+]1[O-]	–	> 10 µg/mL	> 16 µg/mL	–	> 32 µg/mL
[O-][n+]1nc(NC2CCC2)[n+]([O-])c2ccccc21	0.94 µg/mL (≈ 4.05 µM)	1.2 µg/mL (≈ 5.17 µM)	8.9 µg/mL (≈ 38.3 µM)	7.1	0.84 µg/mL (≈ 3.62 µM)
[O-][n+]1nc(NC2CCC2)[n+]([O-])c2ccc(F)cc21	0.4 µg/mL (≈ 1.6 µM)	0.31 µg/mL (≈ 1.24 µM)	1.6 µg/mL (≈ 6.39 µM)	10	0.88 µg/mL (≈ 3.52 µM)
CCNc1n[n+]([O-])c2cc(F)ccc2[n+]1[O-]	0.35 µg/mL (≈ 1.56 µM)	0.62 µg/mL (≈ 2.77 µM)	4.6 µg/mL (≈ 20.5 µM)	7.3	0.75 µg/mL (≈ 3.35 µM)
Cc1cccc2c1[n+]([O-])c(NC1CCC1)n[n+]2[O-]	0.47 µg/mL (≈ 1.91 µM)	0.31 µg/mL (≈ 1.26 µM)	22 µg/mL (≈ 89.3 µM)	70	0.43 µg/mL (≈ 1.75 µM)
CCNc1n[n+]([O-])c2cc(OC)ccc2[n+]1[O-]	15 µg/mL (≈ 63.5 µM)	2.5 µg/mL (≈ 10.6 µM)	–	6.3	16 µg/mL (≈ 67.7 µM)
[O-][n+]1nc(NC2CCCC2)[n+]([O-])c2ccc(F)cc21	0.33 µg/mL (≈ 1.25 µM)	0.31 µg/mL (≈ 1.17 µM)	2.3 µg/mL (≈ 8.7 µM)	7.3	0.34 µg/mL (≈ 1.29 µM)
COC(=O)/C=C/n1ccnc1[N+](=O)[O-]	29 µg/mL (≈ 147 µM)	10 µg/mL (≈ 50.7 µM)	16 µg/mL (≈ 81.2 µM)	1.6	3.3 µg/mL (≈ 16.7 µM)
CCc1n[n+]([O-])c2ccccc2[n+]1[O-]	3.7 µg/mL (≈ 19.4 µM)	5 µg/mL (≈ 26.2 µM)	38 µg/mL (≈ 199 µM)	7.6	0.97 µg/mL (≈ 5.07 µM)
[H][C@]12C[C@]3([H])C[C@]([H])(C1)[C@H](Nc1n[n+]([O-])c4ccccc4[n+]1[O-])[C@]([H])(C2)C3	1.9 µg/mL (≈ 6.08 µM)	2.5 µg/mL (≈ 8 µM)	7.3 µg/mL (≈ 23.4 µM)	2.9	2.3 µg/mL (≈ 7.36 µM)
[O-][n+]1nc(NC2CCC2)[n+]([O-])c2ccc(Cl)cc21	–	0.15 µg/mL (≈ 0.562 µM)	1.6 µg/mL (≈ 6 µM)	10	< 0.12 µg/mL
NNC(=O)c1ccncc1 [ISONIAZID]	0.091 µg/mL (≈ 0.664 µM)	0.06 µg/mL (≈ 0.438 µM)	> 50 µg/mL	>830	> 20 µg/mL
[O-][n+]1nc(N[C@@H]2C[C@H]3CC[C@@H]2C3)[n+]([O-])c2ccc(F)cc21	< 0.12 µg/mL	0.31 µg/mL (≈ 1.07 µM)	< 2.5 µg/mL	<4	0.21 µg/mL (≈ 0.723 µM)
[O-][n+]1nc(NC2CCCCC2)[n+]([O-])c2ccccc21	3.8 µg/mL (≈ 14.6 µM)	2.5 µg/mL (≈ 9.6 µM)	8.9 µg/mL (≈ 34.2 µM)	3.6	0.75 µg/mL (≈ 2.88 µM)
[O-][n+]1nc(NC2CCCCCC2)[n+]([O-])c2ccccc21	1.6 µg/mL (≈ 5.83 µM)	2.5 µg/mL (≈ 9.11 µM)	7.9 µg/mL (≈ 28.8 µM)	3.2	0.5 µg/mL (≈ 1.82 µM)
Nc1n[n+]([O-])c2ccccc2[n+]1[O-] [TIRAPAZAMINE]	3.7 µg/mL (≈ 20.8 µM)	5 µg/mL (≈ 28.1 µM)	8 µg/mL (≈ 44.9 µM)	1.6	7.3 µg/mL (≈ 41 µM)
Cc1ncc([N+](=O)[O-])n1CCO [METRONIDAZOLE]	> 32 µg/mL	> 10 µg/mL	> 16 µg/mL	–	11 µg/mL (≈ 64.3 µM)
CS(=O)(=O)N1CCN(c2n[n+]([O-])c3cc4c(cc3[n+]2[O-])CCC4)CC1	13 µg/mL (≈ 35.6 µM)	5 µg/mL (≈ 13.7 µM)	> 50 µg/mL	>10	15 µg/mL (≈ 41 µM)
[O-][n+]1nc(NC2CCCC2)[n+]([O-])c2ccccc21	3.6 µg/mL (≈ 14.6 µM)	2.5 µg/mL (≈ 10.2 µM)	10 µg/mL (≈ 40.6 µM)	4.2	0.68 µg/mL (≈ 2.76 µM)
O=S1(=O)CCN(c2n[n+]([O-])c3cc4c(cc3[n+]2[O-])CCC4)CC1	15 µg/mL (≈ 44.6 µM)	5 µg/mL (≈ 14.9 µM)	17 µg/mL (≈ 50.5 µM)	3.4	30 µg/mL (≈ 89.2 µM)
CO[C@H]1/C=C/O[C@@]2(C)Oc3c(C)c(O)c4c(O)c(c(/C=N/N5CCN(C)CC5)c(O)c4c3C2=O)NC(=O)/C(C)=C\C=C\[C@H](C)[C@H](O)[C@@H](C)[C@@H](O)[C@@H](C)[C@H](OC(C)=O)[C@@H]1C [RIFAMPIN]	0.041 µg/mL (≈ 0.0498 µM)	0.003 µg/mL (≈ 0.00365 µM)	> 50 µg/mL	>15000	2 µg/mL (≈ 2.43 µM)
[O-][n+]1nc(NC2CCCCC2)[n+]([O-])c2ccc(Cl)cc21	0.94 µg/mL (≈ 3.19 µM)	0.62 µg/mL (≈ 2.1 µM)	2.6 µg/mL (≈ 8.82 µM)	4.2	0.63 µg/mL (≈ 2.14 µM)
